Experimental data published in ChEMBL document CHEMBL1201862, “PubChem BioAssay data set” (2004).
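96-well plates; 48 h exposure; 5 concentrations. Endpoints by linear interpolation between flanking doses. Not reached: highest tested concentration assigned. GI50: concentration for 50% inhibition of growth.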 The source made the active and inactive calls. Cut-off read from the data, not from the text of the source: active = GI50 up to about 1.1 µM and inactive = higher.

Assays:
Experiment in all cases: growth of human tumour cells (NCI), 48 h
NCI-H226 = tested on: NCI-H226
U-251 = tested on: U-251
OVCAR-4 = tested on: OVCAR-4
HOP-92 = tested on: HOP-92
ACHN = tested on: ACHN
SF-295 = tested on: SF-295
RPMI-8226 = tested on: RPMI-8226
M14 = tested on: M14
SF-539 = tested on: SF-539
NCI-H460 = tested on: NCI-H460
RXF 393 = tested on: RXF 393
SNB-19 = tested on: SNB-19
Malme-3M = tested on: Malme-3M
HCT-116 = tested on: HCT-116
MDA-MB-435 = tested on: MDA-MB-435
NCI-H522 = tested on: NCI-H522
UO-31 = tested on: UO-31
HCT-15 = tested on: HCT-15
SK-MEL-2 = tested on: SK-MEL-2
CAKI-1 = tested on: CAKI-1

Measured: GI50

S=C(/N=c1\sc(NCc2ccccc2)nc2sc3c(c12)CCN(N1CCc2c(sc4nc(NCc5ccccc5)s/c(=N\C(=S)NCc5ccccc5)c24)C1)C3)NCc1ccccc1
22.3 µM: HCT-15
inactive: NCI-H226 49.9 µM | U-251 10.5 µM | OVCAR-4 36.7 µM | HOP-92 39.4 µM | ACHN 29.1 µM | SF-295 59.3 µM | RPMI-8226 14.6 µM | M14 42.9 µM | SF-539 23.4 µM | NCI-H460 54.8 µM | RXF 393 36.1 µM | SNB-19 28.2 µM | Malme-3M 70.3 µM | HCT-116 7.74 µM | MDA-MB-435 42.9 µM | NCI-H522 37.7 µM | UO-31 15.4 µM | SK-MEL-2 58.3 µM | CAKI-1 21.9 µM

CC(C)CC1C(=O)NCCC(NC(=O)C(N)Cc2ccc(O)cc2)C(=O)NC(Cc2ccccc2)C(=O)NC(Cc2ccccc2)NC1=O (stereo not given)
> 100 µM: HCT-15
inactive: NCI-H226 > 100 µM | U-251 > 100 µM | OVCAR-4 > 100 µM | HOP-92 72.9 µM | ACHN > 100 µM | SF-295 > 100 µM | RPMI-8226 78.2 µM | M14 > 100 µM | SF-539 > 100 µM | NCI-H460 > 100 µM | RXF 393 > 100 µM | SNB-19 > 100 µM | Malme-3M > 100 µM | HCT-116 > 100 µM | MDA-MB-435 > 100 µM | NCI-H522 > 100 µM | UO-31 > 100 µM | SK-MEL-2 > 100 µM | CAKI-1 > 100 µM

COC(=O)/C=C(/C(=O)OC)c1c(C)cc2c(C)cc(C)cc(C)c1-2
4.56 µM: HCT-15
inactive: NCI-H226 21.1 µM | U-251 8.26 µM | OVCAR-4 22.3 µM | HOP-92 31.6 µM | ACHN 20.4 µM | SF-295 7.24 µM | RPMI-8226 9.79 µM | M14 8.28 µM | SF-539 9.12 µM | NCI-H460 19.9 µM | RXF 393 18.8 µM | SNB-19 9.89 µM | Malme-3M 11.5 µM | HCT-116 4.26 µM | MDA-MB-435 2.77 µM | NCI-H522 7.48 µM | UO-31 23 µM | SK-MEL-2 20 µM | CAKI-1 32.6 µM
